Data taken from patent US20250154180A1, “CRK-LIKE (CRKL) ADAPTOR PROTEIN INHIBITORS AND METHODS OF MAKING AND USING THE SAME” (Rutgers, The State University of New Jersey, priority 2022, published 2025).

Legend:
[1] = test system: PBNK killing in BXPC3 cells; assay: Cr51 release assay, PBNK killing of BXPC3; assay type: cell-based; settings: 1 uM overnight
Protocol: (§1) In this example, activity of NC5 was evaluated for PBNK and CD147-CAR-NK killing in BXPC3 cells. PBNK or CD147-CAR-NK cells were incubated with 1 uM NC5 overnight, then cells were harvested for Cr51 release assay to check cell cytotoxicity. […] The star symbol indicates the significance of vehicle vs. NC5 of the indicated E:T ratios. *p<0.05, **p<0.01, n=3.

MDA-MB-468 cells [2] = assay: MTT proliferation assay, MDA-MB-468; assay type: cell-based
Protocol: MTT assay—The MTT assay was used to detect cell proliferation. Briefly, cells were plated in a 96-well plate at a density of 50,000 cells/well in 200 μl of culture medium with candidate drugs to be tested (DMSO as a negative control). The treated cells were incubated for four hours a 37° C. with a 5% CO2 incubator to allow dark crystals to form at the bottom of the wells. […] After aspirating the culture medium from each well, 100 μl of crystal dissolving solution was added to each well and incubated for 10 minutes at RT. The signal was quantified by measuring the absorbance in each sample at 570 nm using a microplate reader.
(§2) Cell proliferation was first determined by MTT assay as confirmation. […] CrkL is known to mediate the activation of both Raf/ERK and PI3K pathways. So, proteins that relate to these two pathways were utilized.

Thermodynamic solubility = assay type: physicochemical; settings: thermodynamic from solid
Protocol: In this example, solubility measurement assays were performed using a phosphate buffer (also referred to as “PB”) system and a water system to evaluate thermodynamic solubility. The PB system was at a pH of 7.4 to mimic in vivo environments. For the PB system, the values were determined to be NC5: Thermodynamic Solubility pH=7.4<0.42 μg/mL; Compound III: Thermodynamic Solubility pH=7.4<0.48 μg/mL; and Compound I: Thermodynamic Solubility pH=7.4<0.48 μg/mL. Results for the water assay were as follows: NC5: Thermodynamic Solubility Water<0.42 μg/mL; Compound III: Thermodynamic Solubility Water<0.48 μg/mL; and Compound I: Thermodynamic Solubility Water<0.48 μg/mL.

MDA-MB-231 cells = assay: MTT proliferation assay, MDA-MB-231; assay type: cell-based
Protocol: (§3) MTT assay—The MTT assay was used to detect cell proliferation. Briefly, cells were plated in a 96-well plate at a density of 50,000 cells/well in 200 μl of culture medium with candidate drugs to be tested (DMSO as a negative control). The treated cells were incubated for four hours a 37° C. with a 5% CO2 incubator to allow dark crystals to form at the bottom of the wells. After culturing for 48 hours, […] of MTT reagent was added to each well and mixed gently for one minute. After aspirating the culture medium from each well, 100 μl of crystal dissolving solution was added to each well and incubated for 10 minutes at RT. The signal was quantified by measuring the absorbance in each sample at 570 nm using a microplate reader.
Compound II is referred to as “NC5-SO2F” in FIGS. 7A-7C.
as §2

MDA-MB-468 cells [3] = assay: Annexin V/PI apoptosis, MDA-MB-468; assay type: cell-based; settings: 10 uM, 24 hours
Protocol: (§4) Annexin V/PI Staining—Experimental cells were collected, washed with 1×PBS, resuspended in the binding buffer, and stained with an Annexin V-FITC assay Kit (Millipore Sigma). The cells were incubated with 50 μg/ml Annexin V in 1× binding buffer at room temperature for 15 minutes, then 10 μg/ml propidium iodide for another 15 minutes and analyzed by flow cytometry (EPICS XL). Annexin V-positive/PI-negative cells were considered early apoptotic, cells with both Annexin V and PI-positive to be late apoptotic, and Annexin V negative but PI-positive to be “necrotic.” The percent of apoptosis was calculated as the sum of the percentages of both early and late apoptotic cells.
(§5) To figure out the features of cytotoxic effects of Pomiferin on breast cancer cells. Pomiferin-treated breast cancer cells were stained with an Annexin V/PI kit and measured them with Flow Cytometry.

[4] = test system: TNBC cells (MDA-231 and MDA-468); assay: Annexin V/PI apoptosis, TNBC (MDA-231 and MDA-468); assay type: cell-based; settings: 1 uM, 24 hours
Protocol: as §4, §5

[5] = test system: CD147-CAR-NK killing in BXPC3 cells; assay: Cr51 release assay, CD147-CAR-NK killing of BXPC3; assay type: cell-based; settings: 1 uM overnight
Protocol: as §1

P-ERK1/2 in PBMC = assay: Western blotting, PBMC; assay type: cell-based, human; settings: NC5 1, 5, 10 uM, 24 hours
[6] = test system: breast cancer cells (MCF7, MDA-MB-453, MDA-MB-231, MDA-MB-231-GFP-LUC, Hs578t, MDA-MB-468); assay: MTT assay, breast cancer cell lines (TNBC and non-TNBC); assay type: cell-based; settings: 72 h, three days after treatment
Protocol: Peripheral blood mononuclear cells (PBMCs, line with the symbol □) were used to determine the specificities of the cytotoxic effects of Pomiferin. The survival curve of PBMC-average is from four different healthy donors. Cells (1×10^3−3×10^3) were plated in 96-well plates, and cell growth was determined by MTT assay three days after cells were treated with Pomiferin at the indicated doses.
as §3

[7] = test system: PBNK cells killing activity towards SK-Hep1; assay: Cr51 release assay, PBNK killing of SK-Hep1; assay type: cell-based; settings: 1 uM overnight
Protocol: PBNK cells were incubated with 1 uM NC5 or Compound III overnight, then cells were harvested for Cr51 release assay to check cell cytotoxicity. […] The star symbol indicates the significance of vehicle control vs. NC5 of the indicated E:T ratios. *p<0.05, **p<0.01, n=3.

4T1 breast tumor = assay: 4T1-Luc orthotopic syngeneic breast tumor model; assay type: in vivo, Balb/c mice; settings: 5.0 μg/g oral gavage
Text: Syngeneic orthotopic 4T1 breast tumor-bearing mouse model was established by inoculating 5×10^4 4T1-Luc cells mixed with Matrigel were into the left inguinal fat pad of Balb/c mice from Jackson Laboratories. This orthotopic syngeneic breast tumor model is a tool for preclinical testing of anti-cancer drugs or immunotherapy that require an intact immune system to elicit activity.
To test the effects of the disclosed compounds on the xenograft mouse models, the HCC-Sk-Hep1 cell line xenograft model in NSG mice and 4T1-Luc orthotopic syngeneic breast tumor model in Balb/c mice was used. After confirming the palpable tumor in NSG or Balb/c mice. […] Compound III is referred to as “NC5-140-1” and Compound I is referred to as “NC5-140-2” in FIGS. 11A-11C.

SMILES: CC(C)=CCc1c2c(c3occ(-c4ccc(O)c(O)c4)c(=O)c3c1O)C=CC(C)(C)O2 [Pomiferin, 3′,4′,5-Trihydroxy-6″,6″-dimethyl-6-(3-methylbut-2-en-1-yl)-6″H-pyrano[2″,3″:7,8]isoflavone]
- PBNK killing (Cr51 release) [1]: increased
- cell proliferation (MTT) (MDA-MB-468 cells [2]; 1 uM, 5 uM and 10 uM, 24 hours): significantly inhibited cell proliferation
- cell proliferation (MTT) (MDA-MB-468 cells [2]; 2.5 μM, 48 hours, vs DMSO): inhibited cell proliferation
- solubility thermodynamic (Thermodynamic solubility; pH 7.4, aqueous buffer): < 0.42 µg/mL
- solubility thermodynamic (Thermodynamic solubility; water): < 0.42 µg/mL
- cell proliferation (MTT) (MDA-MB-231 cells; 1 uM, 5 uM and 10 uM, 24 hours): significantly inhibited cell proliferation
- cell proliferation (MTT) (MDA-MB-231 cells; 2.5 μM, 48 hours, vs DMSO): blocked cell proliferation
- percentage of apoptotic cells (MDA-MB-468 cells [3]): significantly increased
- apoptosis [4]: significantly induced apoptosis
- CD147-CAR-NK killing (Cr51 release) [5]: increased
- P-ERK1/2 levels (Western blotting) (P-ERK1/2 in PBMC): minimal changes
- IC50 [6]: 1300 to 3600 nM
- PBNK cells killing activity (Cr51 release) [7]: increased PBNK cells killing activity
- tumor growth (4T1 breast tumor): steady growth inhibition
- median survival (4T1 breast tumor; vehicle 25 days): 38.5 days
